Key:
[1] = molecular target: T1, R7-R8 S1641E (Mus musculus, UniProt P26039, S1641E); assay: Fluorescence polarization binding to talin1 R7-R8 S1641E; parameters: species or system murine; conditions: 0.5 μM BODIPY TMR-labeled peptide, PBS, room temperature, ± SE, triplicate, panel G, read-out: Dissociation constant (Kd), S1641E
T1 construct: His-tag (cleaved yes); made in house; host or cells: E. coli BL21(DE3)
Source text: The cDNAs encoding murine talin1 residues 1357–1653 (R7-R8), 1357–1653 Δ1454–1586 (R7) and 1461–1580 (R8) were synthesized by PCR using a mouse talin1 cDNA as template and cloned into the expression vector pet151-TOPO (Invitrogen) ([Gingras et al., 2010]). Talin mutants were synthesized by GeneArt. Talin polypeptides were expressed in E. coli BL21(DE3) cultured either in LB for unlabeled protein, or in M9 minimal medium for the preparation of isotopically labeled samples for NMR. Recombinant His-tagged talin polypeptides were purified by nickel-affinity chromatography following standard procedures. The His-tag was removed by cleavage with AcTEV protease (Invitrogen), and the proteins were further purified by anion-exchange. Protein concentrations were determined using their respective extinction coefficient at 280 nm.
KANK peptides with a C-terminal cysteine residue were synthesized by Biomatik (USA):
Fluorescence Polarization was carried out on KANK peptides with a carboxy terminal cysteine. […]
The Fluorescence Polarization assay was carried out on a black 96well plate (Nunc). […] Fluorescence Polarization measurements were recorded on a BMGLabTech CLARIOstar plate reader at room temperature and analyzed using GraphPad Prism (version 6.07). Kd values were calculated with a nonlinear curve fitting using a one site total and non-specific binding model.

[2] = molecular target: T2, Talin1 R7-R8 (1357–1659) (Mus musculus, UniProt P26039); assay: Fluorescence polarization binding of BODIPY-labeled KANK peptides to talin1 R7-R8; parameters: species or system murine; conditions: Fluorescence polarization; 0.5 μM BODIPY TMR-labeled peptide, increasing talin R7-R8, PBS, room temperature; one site total and non-specific binding; ± SE, triplicate; panel F; read-out: Dissociation constant (Kd), Fig. 2F
T2 construct: peptides to Talin1 R7-R8 (1357–1659) was measured using a Fluorescence Polarization assay; His-tag (cleaved yes); made in house; host or cells: E. coli BL21(DE3)
T2 sequence (P26039 1357-1659): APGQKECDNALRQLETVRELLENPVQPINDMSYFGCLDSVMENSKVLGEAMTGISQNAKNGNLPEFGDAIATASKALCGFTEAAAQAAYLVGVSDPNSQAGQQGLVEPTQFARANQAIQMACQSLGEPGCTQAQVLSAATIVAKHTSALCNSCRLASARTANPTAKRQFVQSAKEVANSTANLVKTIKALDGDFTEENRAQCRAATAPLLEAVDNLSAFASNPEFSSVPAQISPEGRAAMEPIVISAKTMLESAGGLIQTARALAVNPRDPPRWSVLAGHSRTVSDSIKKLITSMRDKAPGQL

[3] = tested on: focal adhesions in HeLa cells; assay: FA number; type: cell-based, human
Experimental: (§1) HeLa Kyoto cell line was described previously ([Lansbergen et al., 2006]; [Mimori-Kiyosue et al., 2005]). HEK293T cells were purchased from ATCC; culture and transfection of DNA and siRNA into these cell lines was performed as previously described ([van der Vaart et al., 2013]). HaCaT cells were purchased at Cell Line Service (Eppelheim, Germany) and cultured according to manufacturer’s instructions. The cell lines were routinely checked for mycoplasma contamination using LT07-518 Mycoalert assay (Lonza, Switzerland).The identity of the cell lines was monitored by immunofluorescence-staining-based analysis with multiple markers. Blebbistatin was purchased from Enzo Life Sciences and used at 50 μM. Serum starvation in HeLa cells was done for 48 hr and focal adhesion assembly was stimulated by incubation with fetal calf serum-containing medium with or without blebbistatin for 2 hr. ROCK1 inhibitor Y-27632 was purchased at Sigma-Aldrich and used at 1 or 10 μM. Double stable HeLa cell line expressing GFP-KANK1 and TagRFP-paxillin was made by viral infection. We used a pLVIN-TagRFP-paxillin-based lentivirus and a pQC-GFP-KANK1-based retrovirus packaged in HEK293T cells using respectively Lenti-X HTX packaging and pCL-Ampho vectors. Antibiotic selection was applied to cells 48 hr after infection using 500 μg/ml G418 (Geneticin, Life Technologies) and 1 μg/ml puromycin (InvivoGen).
(§2) For presentation, images were adjusted for brightness and processed by Gaussian blur and Unsharp mask filter using ImageJ 1.47v (NIH). Fluorescence profiles are values measured by line scan analysis in ImageJ, normalized by background average fluorescence, expressed as a factor of the baseline value obtained for individual channel and plotted as a function of maximum length factor of the selection line (distance ratio). Protein clustering at the cell edge is the ratio of the total fluorescence in the first 5 μm from the cell edge to the next 5 μm measured by line scan analysis in ImageJ after thresholding for cell outline marking and out-of-cell region value assigned to zero. The results were plotted as percentage of control condition average value. FA counting and area measurement was performed using Analyze Particles under ImageJ on focal adhesion binary mask obtained after Gaussian blur/threshold-based cell outline marking and background subtraction (rolling ball radius, 10 pixels). KANK1/talin colocalization was analyzed using Pearson R value provided by Colocalization Analysis plugin under FiJi-ImageJ and a 3 μm diameter circular ROI centered on talin clusters detected by immunofluorescent staining.

[4] = tested on: KANK1/talin in HeLa cells; assay: KANK1 and talin colocalization (Pearson R); type: cell-based, human
Experimental: as §1, with “We used a pLVIN-TagRFP-paxillin-based lentivirus and a pQC-GFP-KANK1-based retrovirus packaged in HEK293T cells using respectively Lenti-X HTX packaging and pCL-Ampho vectors. Antibiotic selection was applied to cells 48 hr after infection using 500 μg/ml G418 (Geneticin, Life Technologies) and 1 μg/ml puromycin (InvivoGen).” left out
as §2, with “The results were plotted as percentage of control condition average value. FA counting and area measurement was performed using Analyze Particles under ImageJ on focal adhesion binary mask obtained after Gaussian blur/threshold-based cell outline marking and background subtraction (rolling ball radius, 10 pixels).” left out

[5] = tested on: KANK1 at the cell edge of HeLa cells; assay: Peripheral clustering of KANK1; type: cell-based, human
Experimental: as §1
Antibodies against HA and GFP tags, and liprin β1 used for Western blot analysis were previously described ([van der Vaart et al., 2013]). Rabbit antibodies against KANK1 (HPA005539) and KANK2 (HPA015643) were purchased at Sigma-Aldrich. Western blot analysis of KANK1 was performed using rabbit polyclonal KANK1 antibody (A301-882A) purchased at Bethyl Laboratories. Talin immunofluorescence staining was performed using mouse monoclonal 8d4 antibody (Sigma-Aldrich). Western blot analysis of talin 1 and 2 expression was performed using respectively the isotype specific mouse monoclonal 97H6 (Sigma-Aldrich) and 68E7 (Abcam) antibodies. Ku80 (7/Ku80) antibody was purchased from BD Biosciences. Immunofluorescence staining of KANK1, LL5β, liprin β1, KIF21A and CLASP2 in HeLa and HaCaT cells was performed using the antibodies and procedures previously described ([Lansbergen et al., 2006]; [van der Vaart et al., 2013]). F-actin was stained using Alexa Fluor 594-conjugated phalloidin (Life Technologies). Phospho-tyrosine mouse antibody (PT-66) was purchased from Sigma-Aldrich and rabbit FAK phospho-tyrosine 397 was purchased from Biosource.
Fixed samples and corresponding immunofluorescence images were acquired using widefield fluorescence illumination on a Nikon Eclipse 80i or Ni upright microscope equipped with a CoolSNAP HQ2 CCD camera (Photometrics) or a DS-Qi2 camera (Nikon) an Intensilight C-HGFI precentered fiber illuminator (Nikon), ET-DAPI, ET-EGFP and ET-mCherry filters (Chroma), Nikon NIS Br software, Plan Apo VC 100x NA 1.4 oil, Plan Apo Lambda 100X oil NA 1.45 and Plan Apo VC 60x NA 1.4 oil (Nikon) objectives. TIRFM-based live cell imaging was performed using the setup described before ([van der Vaart et al., 2013]) or a similar Nikon Ti microscope-based Ilas^2 system (Roper Scientific, Evry, FRANCE) equipped with dual laser illuminator for azimuthal spinning TIRF (or Hilo) illumination, 150 mW 488 nm laser and 100 mW 561 nm laser, 49,002 and 49,008 Chroma filter sets, EMCCD Evolve mono FW DELTA 512x512 camera (Roper Scientific) with the intermediate lens 2.5X (Nikon C mount adapter 2.5X), CCD camera CoolSNAP MYO M-USB-14-AC (Roper Scientific) and controlled with MetaMorph 7.8.8 software (Molecular Devices). Simultaneous imaging of […] was performed as described before ([van der Vaart et al., 2013]) or using the Optosplit III image splitter device (Andor) on the Ilas^2 system.
For presentation, images were adjusted for brightness and processed by Gaussian blur and Unsharp mask filter using ImageJ 1.47v (NIH). […]

[6] = tested on: focal adhesions in HeLa cells; assay: FA area; type: cell-based, human; conditions: Y-27632, HeLa
Experimental: HeLa Kyoto cell line was described previously ([Lansbergen et al., 2006]; [Mimori-Kiyosue et al., 2005]). HEK293T cells were purchased from ATCC; culture and transfection of DNA and siRNA into these cell lines was performed as previously described ([van der Vaart et al., 2013]). HaCaT cells were purchased at Cell Line Service (Eppelheim, Germany) and cultured according to manufacturer’s instructions. The cell lines were routinely checked for mycoplasma contamination using LT07-518 Mycoalert assay (Lonza, Switzerland).The identity of the cell lines was monitored by immunofluorescence-staining-based analysis with multiple markers. Blebbistatin was purchased from Enzo Life Sciences and used at 50 μM. […]
For presentation, images were adjusted for brightness and processed by Gaussian blur and Unsharp mask filter using ImageJ 1.47v (NIH). Fluorescence profiles are values measured by line scan analysis in ImageJ, normalized by background average fluorescence, expressed as a factor of the baseline value obtained for individual channel and plotted as a function of maximum length factor of the selection line (distance ratio). Protein clustering at the cell edge is the ratio of the total fluorescence in the first 5 μm from the cell edge to the next 5 μm measured by line scan analysis in ImageJ after thresholding for cell outline marking and out-of-cell region value assigned to zero. […]

T1 sequence (P26039 1357-1659 S1641E): as the sequence (P26039 1357-1659) above, with S285E counted along it

With `CC[C@H](C)[C@H](NC(=O)[C@H](CC(=O)O)NC(=O)[C@H](CC(=O)O)NC(=O)[C@@H](NC(=O)[C@H](Cc1ccc(O)cc1)NC(=O)[C@H](CCCCN)NC(=O)[C@@H](NC(=O)[C@H](Cc1ccccc1)NC(=O)[C@H](CC(=O)O)NC(=O)[C@H](CC(C)C)NC(=O)[C@H](CC(=O)O)NC(=O)[C@H](CC(C)C)NC(=O)[C@H](CCC(N)=O)NC(=O)[C@H](Cc1ccccc1)NC(=O)CNC(=O)[C@H](Cc1ccc(O)cc1)NC(=O)[C@@H]1CCCN1C(=O)[C@@H](NC(=O)[C@H](CCC(=O)O)NC(=O)[C@@H](NC(=O)[C@H](Cc1ccccc1)NC(=O)[C@H](Cc1ccc(O)cc1)NC(=O)[C@@H]1CCCN1)C(C)C)[C@@H](C)O)C(C)C)C(C)C)C(=O)N[C@@H](CCC(N)=O)C(=O)N[C@@H](CCCCN)C(=O)NCC(=O)N[C@@H](CC(N)=O)C(=O)N[C@H](C(=O)N[C@H](C(=O)N[C@@H](CCCCN)C(=O)N[C@@H](CCCCN)C(=O)N[C@@H](CS)C(=O)O)[C@@H](C)CC)[C@@H](C)O` [KANK1(30–60)C] the Kd [1] was 2100 ± 400 nM and the Kd [2] was 800 ± 100 nM.
For `C[C@@H](N)[C@H]1CC[C@H](C(=O)Nc2ccncc2)CC1` [Y-27632], the “AV #FA (mean number of focal adhesions per cell)” value ([3]; HeLa, Y-27632 1 uM, 45 min, mean of 7 cells (SD 17.5499, SEM 6.63325)) was 54, the “number of FAs (in words)” value ([3]; Y-27632, HeLa) was “the number of FAs was not affected” and the “KANK1 and talin colocalization, Pearson R value, av, 1 uM” value ([4]; Y-27632 1 uM, mean, n = 30, sem 0.0310046, control 0.0606667) was 0.496. For the same molecule, the “KANK1 and talin colocalization, Pearson R value, av, 10 uM” value ([4]; Y-27632 10 uM, mean, n = 30, sem 0.0260316, control 0.0606667) was 0.535, the “overlap of KANK1 with FA adhesion markers (in words)” value ([4]; Y-27632, HeLa) was “very significant increase in the overlap of KANK1 with FA adhesion markers” and the “Peripheral clustering of KANK1, edge ratio, AV, 1 uM” value ([5]; Y-27632 1 uM, 45 min, mean, n = 12, SEM 0.341991) was 2.059. For the same molecule, the “Peripheral clustering of KANK1, percentage of control, AV, 1 uM” value ([5]; Y-27632 1 uM, 45 min, mean, n = 12, SEM 6.6857) was 40.2515 percentage of control condition average value, the “Peripheral clustering of KANK1, edge ratio, AV, 10 uM” value ([5]; Y-27632 10 uM, 45 min, mean, n = 12, SEM 0.374449) was 2.344 and the “Peripheral clustering of KANK1, percentage of control, AV, 10 uM” value ([5]; Y-27632 10 uM, 45 min, mean, n = 12, SEM 7.32023) was 45.8254 percentage of control condition average value. For the same molecule, the “CMSC clustering at the cell edge (in words)” value ([5]; Y-27632, HeLa) was “sufficient to diminish CMSC clustering at the cell edge” and the “size of FAs (in words)” value [6] was “their size was reduced”.
